Data as given in patent publication US9657013B2, “Inhibitors of hepatitis B virus covalently closed circular DNA formation and their method of use” (priority 2012, dated 2017).

Experiments:
Format in all cases: cell-based, hepatitis B virus
[1] = test system: HBV e antigen (HBeAg) production in HepDE19 cells; test: HBeAg ELISA in HepDE19 cells (surrogate marker for cccDNA); details: nine days incubation
Experimental: High throughput compound screen and assay: HepDE19 cells were cultured under tetracycline containing medium until confluent, the cells were then trypsinized and seeded in 96-well plates at a density of 5.0×10^4 cells/well with tetracycline-free medium to induce HBV replication. Immediately following cell seeding, compounds were added to screening plates by means of automated liquid handling (Beckman Coulter, Brea, Calif.), at a final concentration of 10 μM in 1.0% DMSO. Each screening plate consisted of 80 compound test wells, 4 wells of cells with 1.0% DMSO only, 4 wells with DMSO and without cells, and 4 wells of cells with DMSO and 50 μM lamivudine (3TC) as a reference inhibitor. […] Intracellular HBeAg (precore) accumulation was assayed by indirect ELISA assay as follows. Media was removed from wells and the cell monolayer was fixed with 100% ice cold methanol for 20 min, followed with two washes (150 μl each) with PBS containing 0.5% Tween-20 (PBST) with 1 min incubation at room temperature. […] Signal was allowed to develop for 20 minutes and optical absorbance was determined at a wavelength of 650 nm with a reference reading at 490 nm. […]

HBV DP-rcDNA = test: DP-rcDNA level in HepDES19 cells (Southern blot); details: for reduction of DP-rcDNA: early time point
Description: Viral nucleic acid analysis: Total cellular RNA was extracted with TRIzol reagent (Invitrogen, Grand Island, N.Y.) by following manufacturer's directions. Ten microgram of total cellular RNA was resolved in 1.5% agarose gel containing 2.2 M formaldehyde and transferred onto Hybond-XL membrane (GE Healthcare, Piscataway, N.J.) in 20×SSC buffer. Intracellular hepadnaviral core DNA and cccDNA (Hirt DNA) were extracted as described previously (Guo, H., D. Jiang, T. Zhou, A. Cuconati, T. M. Block, and J. T. Guo. 2007. Guo, H., D. Jiang, T. Zhou, A. Cuconati, T. M. Block, and J. T. Guo. 2007. Guo, H., R. Mao, T. M. Block, and J. T. Guo. 2010. Guo, H., W. S. Mason, C. E. Aldrich, J. R. Saputelli, D. S. Miller, A. R. Jilbert, and J. E. Newbold. 2005). Half of the DNA samples recovered from one well of a 6-well-plate were resolved by electrophoresis into a 1.2% agarose gel and blotted onto Hybond-XL membrane. Membranes were probed with either an α-^32P-UTP (800 Ci/mmol, Perkin Elmer) labeled hepadnaviral minus (detecting DNA) or plus strand (detecting RNA) specific full-length riboprobe and exposed to a phosphorimager screen (Fuji Film, Tokyo, Japan). Hybridization signals were visualized by Typhoon FLA-7000 (GE Healthcare) and quantified with ImageQuantTL software (GE Healthcare).
Identification of compounds that inhibits cccDNA accumulation in HepDES19 cells: Compounds were tested on HepDES19 cells, which have a higher level of cccDNA production than HepDE19 cells (Guo, H., D. Jiang, T. Zhou, A. Cuconati, T. M. Block, and J. T. Guo. 2007). Briefly, after withdrawal of tetracycline, HepDES19 cells were left untreated, or were treated with compound at serial concentrations; tetracycline-free media was changed every other day with fresh compound supplementation. […] The cells were harvested at day 12, viral RNA (top panel), core DNA (middle panel), and Hirt DNA (DP-rcDNA and cccDNA) (bottom panels) were extracted and analyzed by Northern blot and Southern blot, respectively. Shorter exposure of the Hirt DNA blot was used for the quantitative determination of DP-rcDNA signals. […]

HBV Dp-rcDNA and cccDNA = test: stability of HBV DP-rcDNA and cccDNA

SMILES	HBeAg production [1]	reduction of DP-rcDNA (HBV DP-rcDNA)	stability of HBV Dp-rcDNA and cccDNA (HBV Dp-rcDNA and cccDNA)	reduction of putative cccDNA precursor DP-rcDNA (HBV DP-rcDNA; HepDES19 cells, day 12)
Cc1nc2cc(NC(=O)c3ccc(S(=O)(=O)N(C)Cc4ccccc4)cc3)ccc2s1 [CCC-0346, 4-(Benzyl-methyl-sulfamoyl)-N-(2-methyl-benzothiazol-5-yl)-benzamide]	inhibitor	significant reduction	did not alter	
O=C(CN(c1cc(C(F)(F)F)ccc1Cl)S(=O)(=O)c1ccccc1)NCc1ccncc1 [CCC-0975, 2-[Benzenesulfonyl-(2-chloro-5-trifluoromethyl-phenyl)-amino]-N-pyridin-4-ylmethyl-acetamide]	inhibitor	significant reduction	did not alter	significant reduction
